In a melting point compilation (Tetko et al.; mined from patent text by program, amines drawn as free bases though some values may be those of a salt):

| Structure (SMILES) | melting point [°C] |
| --- | --- |
| CC(C)[C@H](NC(=O)OCc1ccc2ccccc2n1)C(=O)N[C@@H](Cc1ccccc1)[C@@H](O)C[C@H](Cc1ccccc1)NC(=O)OCc1cccnc1 | 159 to 163 |
| COCCNC(=O)Nc1nc2cc(OS(=O)(=O)c3c(C)cc(C)cc3C)ccc2[nH]1 | 140 |
| O=C1CN2C(=O)C(c3ccccc3)c3cccc(c32)N1 (stereo unspecified) | 235 |
| CCOC(=O)C(C(=O)C=CC(C)Oc1ccc(Oc2ccc(C(F)(F)F)cc2)cc1)C(=O)OCC (stereo unspecified) | 52 to 55 |
| COc1ccccc1C(=O)c1cccc(C#N)c1 | 180 |
| O=C1NCCc2[nH]c3cc(F)ccc3c21 | 213 to 215 |
| O=C(CCC12CCC(=O)N1C(=O)CC2)OCc1ccc(Cl)cc1 | 141 to 142 |
| C[C@@H](n1cnc2cc(-c3ccc(C(=N)NCCN)cc3)sc2c1=O)[C@](O)(Cn1cncn1)c1ccc(F)cc1F | 154 to 161 |
| CCCCCCCCC1(CCn2ccnc2)SCCS1 | 98 to 101 |
| CC(=O)NCCCCCCCCCCC(=O)O | 62 to 65 |
| Oc1ccc(Cn2ccnc2)c2cccnc12 | 182 |
| O=C(Nc1ccc(CCN2C(=O)C3CCCC3=Nc3ccccc32)cc1)OCc1ccccc1 (stereo unspecified) | 103 to 105 |
| COc1cc(NC(=O)CC#N)cc(OC)c1OC | 146 to 147 |
| CSc1c(C#N)nn(-c2c(Br)cc(C(F)(F)F)cc2Br)c1N | 211 to 214 |
| COc1cccc(OC)c1C(=O)Nc1cccc2c1CCN(C)C2 | 191 to 192 |
| Cc1cc(Cc2nnc(Nc3ccc(Cl)cc3)c3ccccc23)ccn1 | 183 to 184 |
| CCC(C)(C)OC(=O)OOC1CC(C)(C)N(C(C)=O)C(C)(C)C1 | 70 to 73 |
| CCc1cc([N+](=O)[O-])c(NC(CC)CC)c([N+](=O)[O-])c1C | 51 to 53 |
| CCCc1nc(N(C)c2ccccc2)n2ncc(C(=O)c3ccccc3Cl)c2n1 | 149 to 151 |
| CC(=O)NCCc1cnn2ccc3c(c12)CCO3 | 174 to 175 |
| CC(c1c[nH]cn1)c1cccc(C#N)c1O (stereo unspecified) | 172 |
| CCOC(=O)c1cccc(NC(=O)NC2C(=O)N(CC34CC5CC(CC(C5)C3)C4)c3ccccc3N(c3ccccc3)C2=O)c1 (stereo unspecified) | 220 to 221 |
| CCCc1nc(C)nc(NN)c1Cc1ccc(-c2ccccc2C#N)cc1 | 156 |

| Structure (SMILES) | melting point [°C] |
| --- | --- |
| COC(=O)c1ccc(NC(=O)Cc2ccc(OC)c(C34CC5CC(CC(C5)C3)C4)c2)cc1 | 146 to 147 |
| O=C(C(=O)N1CCC(Oc2ccc(F)cc2)CC1)c1c[nH]c2ccccc12 | 205 to 207 |
| Cc1nc2cnccc2n1-c1ccc(CC(=O)O)cc1 | 226 to 230 |
| CCOC(=O)C1=C(COCCOc2ncccn2)NC(C)=C(C(=O)OC)C1c1ccccc1Cl (stereo unspecified) | 101 |
| N#Cc1ccccc1C(=O)c1ccccc1O | 100 |
| Cc1sc2[nH]c(=O)n(Cc3ccc(Cl)cc3)c(=O)c2c1C | 291 to 292 |
| CNC(=O)c1cccc(-c2ccc3nnn(Cc4ccc5ncccc5c4)c3n2)c1 | 215 to 217 |
| CCCCCOC(=O)C1CC(=O)NN1c1ncccc1Cl (stereo unspecified) | 66 to 68 |
| C#CC1(OCc2ccccc2F)CCN(C(C)=O)CC1 | 59 to 62 |
| CS(=O)(=O)OCC1CC(=O)N(c2ccc(-c3ccc(C#N)cc3)cc2)C1 (stereo unspecified) | 183 to 186 |
| c1ccc(-c2ccc(-c3nc(-c4ccc(-c5ccccc5)cc4)nc(-c4ccc(-c5ccccc5)cc4)n3)cc2)cc1 | 283 |
| CCN(CC)CCNC(=O)c1ccc2cncc(I)c2n1 | 44 to 46 |
| O=S1(=O)N=CN(C2CC2)c2cc(Br)c(F)cc21 | 218 to 219 |
| NCCNc1nc(N)nc(-c2cc(Cl)ccc2Cl)n1 | 152 to 153 |
| CCCCCCCCCCCCCCCC(=O)NC(Cc1cc(CP(=O)(O)O)cc(-c2ccccc2)c1)C(=O)O (stereo unspecified) | 130 to 140 |
| OCCCCC(F)(F)C(F)(F)CCO | 52 to 55 |
| CCOC(=O)c1c(N(C)C)cc(C(F)(F)F)nc1C(F)(F)F | 63.5 to 65 |
| COc1ccc(COc2cccnc2NC(=S)Nc2ccccc2)cc1 | 123 to 125 |
| Cc1ccc(C)c(OCCC(Cl)C(C)(C)C(=O)O)c1 (stereo unspecified) | 117 to 118 |
| Cc1ccc2c3c(ccc2n1)OCC(CN1C2CCC1CC(O)(c1ccc4ccccc4c1)C2)O3 (stereo unspecified) | 218 |
| CC(C)[Si](Oc1c(F)cc([C@@H](O)[C@@H](C)N2CCC(O)(c3ccc(Cl)cc3)CC2)cc1F)(C(C)C)C(C)C (relative stereo) | 192 |
| COc1ccc(-n2c(=O)c3c(Cc4ccccc4)n[nH]c3c3cccnc32)cc1 | > 320 |

The next lines start with the values.

| melting point [°C] | Structure (SMILES) |
| --- | --- |
| 167 to 171 | CNC(=O)NCCn1c(-c2ccc(CCN3CCOCC3)cc2)csc1=Nc1ccc(F)c(C)c1 |
| 102 to 104 | Cc1cc(N)ccc1C(O)c1ccccn1 (stereo unspecified) |
| 102 to 105 | CN(C)CCCOc1ccc(-c2ccc3nnn(Cc4ccc5ncccc5c4)c3n2)cc1F |
| 120 to 122 | COc1cccc(C2CCCCN(Cc3ccccc3)C2=O)c1 (stereo unspecified) |
| 115 to 118 | Cc1ncc(NC(=O)OCc2ccccc2)c(=O)n1CC(=O)NC(Cc1ccccc1)C(=O)C(F)(F)F (stereo unspecified) |
| 89 to 90 | CCCn1nnn(-c2cc(OC3CCCO3)c(Cl)cc2Cl)c1=O (stereo unspecified) |
| 200 | O=C(NCc1ccc(Cl)cc1)c1ccc2sc(CN3CCOCC3)cc2c1O |
| 176 to 177 | CC12CCC(O)CC1=CCC1C2CCC2(C)C(n3nccn3)=CCC12 (stereo unspecified) |
| 229 to 231 | C#Cc1cc(O)cc2nc(-c3ccc(O)cc3)oc12 |
| 144 to 145 | COCCOc1ccc(/C=C/C(=O)O)c(Oc2ncc(Br)s2)c1 |
| 212 to 214 | CC(CC#CCN1CCN(C)CC1)C(=O)N1c2ccccc2C(=O)Nc2cccnc21 (stereo unspecified) |
| 219 to 221 | N#Cc1cnc2sc(-c3ccccc3)cc2c1Oc1ccc2[nH]ccc2c1 |
| 154 to 155 | CCCCc1nc(Cl)c(C(=O)OC)n1Cc1ccc(-c2ccccc2C(=O)O)cc1 |
| 125 to 127 | CNC(=O)N(C)c1nc(CC(=O)Nc2cccc(C(F)(F)F)c2)cs1 |
| > 260 | N#Cc1c(C(F)(F)F)[nH]c2cc(Cl)c(Cl)cc12 |
| 265 to 266 | N[C@@H](CCC1CCCCC1)C(=O)O |
| 132 to 134 | CC(C)(C)O[C@H]1C[C@H]2CN(C3=Nc4cc(Cl)ccc4Sc4ccccc43)CCN2C1 |
| 104 to 105 | CCCc1nc(-n2cccc2C(=O)C(F)(F)F)c(C#N)[nH]1 |
| 196 | N#Cc1ccc(-c2ccc(Br)o2)nc1 |
| 122 to 124 | CN1CCSC1=NC(=Nc1ccccc1)N1CCCCC1 |
| 141 to 143 | O=C(Nc1cc(Cl)ccc1N1CCCCC1)c1ccncc1 |
| 229 to 231 | COc1ccccc1Cc1n[nH]c2c1c(=O)n(-c1cccc(C(F)(F)F)c1)c1ncccc21 |
| 220 to 222 | CC(=O)c1ccc(C2CCN(C(C)=O)CC2)c(N)c1 |
| 107 to 109 | CC(C)CCCC(C)C1CCC2C3C=CC4=CC(=O)C5OC5C4(C)C3CCC12C (stereo unspecified) |
| > 300 | CCn1ncc2c3[nH]c4ccnn4c(=O)c3cnc21 |
| 94 to 97 | CCOCc1cccc2[nH]c3cnc(C(=O)OCC)c(COC)c3c12 |
